Experimental data reported in PubChem BioAssay (NCI).
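Five concentrations, 48 hours, 96-well plates. Here, GI50 denotes the concentration required for 50% inhibition of growth. The concentration for full growth arrest is given as TGI.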

Experiments:
Experiment in all cases: NCI tumour cell line growth inhibition, 48 h
[1] = system: NCI-H23 lung
[2] = system: OVCAR-3 ovarian
[3] = system: NCI-H460 lung
[4] = system: SK-OV-3 ovarian
[5] = system: HS 578T breast
[6] = system: HOP-62 NSCLC
[7] = system: OVCAR-4 ovarian
[8] = system: NCI-H522 lung
[9] = system: HCT-15 colon
[10] = system: TK-10 renal

Compound | GI50 [1] [µM] | TGI [1] [µM] | GI50 [2] [µM] | TGI [2] [µM] | GI50 [3] [µM] | TGI [3] [µM] | GI50 [4] [µM] | TGI [4] [µM] | GI50 [5] [µM] | TGI [5] [µM] | GI50 [6] [µM] | TGI [6] [µM] | GI50 [7] [µM] | TGI [7] [µM] | GI50 [8] [µM] | TGI [8] [µM] | GI50 [9] [µM] | TGI [9] [µM] | GI50 [10] [µM] | TGI [10] [µM]
C#CCN(Cc1nc2cc(C(F)(F)F)ccc2nc1-c1ccccc1)c1ccc(OC(F)(F)F)cc1 | 60.5 | > 100 | 49.1 | > 100 | 38 | > 100 | > 100 | > 100 | > 100 | > 100 | > 100 | > 100 | > 100 | > 100 | 16.6 | 54.6 | > 100 | > 100 | 78.9 | > 100
COc1cc(-n2cc(-c3ccc(F)cc3)nc2SCc2ccccc2)cc(OC)c1OC | > 100 | > 100 | > 100 | > 100 | 77.2 | > 100 | > 100 | > 100 | > 100 | > 100 | > 100 | > 100 | > 100 | > 100 | 89.8 | > 100 | > 100 | > 100 | > 100 | > 100
Cc1ccc2c(c1)c1nc3cc(C)c(C)cc3nc1n2CCN(C)C | 2.04 | 5.9 | 2.37 | 6.59 | 2.69 | 9.25 | 2.61 | 8.52 | 2.74 | 8.04 | 1.78 | 7.26 | 3.43 | 19.6 | 1.54 | 5.58 | 1.91 | 7.75 | 2.11 | 7.94
COc1cc(C(=O)N2N=C(c3ccc(S(C)(=O)=O)cc3)CC2c2ccco2)cc(OC)c1OC (stereo not given) | 15.2 | > 100 | 1.95 | 5.46 | 3.51 | > 100 | 4.9 | > 100 | 5.42 | > 100 | 26.7 | > 100 | 7.45 | > 100 | 3.95 | > 61.6 | 4.13 | > 100 | 29 | > 100
Clc1cc2c(cc1Cl)Oc1cc(Cl)c(Cl)cc1O2 | > 0.625 | > 0.625 | > 0.625 | > 0.625 | > 0.625 | > 0.625 | > 0.625 | > 0.625 | > 0.625 | > 0.625 | > 0.625 | > 0.625 | > 0.625 | > 0.625 | > 0.625 | > 0.625 | > 0.625 | > 0.625 | > 0.625 | > 0.625
CC1=C(/C=C/C(=O)O)C(C)(C)CCC1 | – | > 100 | – | > 100 | – | > 100 | – | > 100 | – | > 100 | – | > 100 | – | > 100 | – | > 100 | – | > 100 | – | > 100
COc1ccc2c(c1)=C(C=C1C=CN(O)C=C1)C(=O)N=2 | 23.8 | 72.3 | 26.2 | > 78.1 | > 50.1 | > 88.3 | 18.8 | 54.5 | 32.1 | > 86.3 | 40.2 | > 100 | 9.96 | > 100 | 20.5 | 61.6 | 25 | > 75.9 | 36.3 | > 90.5
O=C1C2C(C(=O)[N]1[Hg][c]1cccs1)C1(Cl)C(Cl)=C(Cl)C2(Cl)C1(Cl)Cl (stereo not given) | 1.62 | 3.14 | 0.283 | 0.904 | 3.04 | 10.1 | 5.71 | 17.9 | 2.41 | 11.5 | 2.52 | 6.84 | 1.24 | 2.51 | 0.162 | 0.432 | 0.821 | 2.27 | 1.65 | 3.04
CN(Cc1ccc(Cl)cc1)c1ccc(CO)c(Cl)c1 | 5.98 | 23 | 3.74 | 13.2 | 1.35 | 11.1 | 5.18 | 16.9 | 12.5 | 39.8 | 5.75 | 18.3 | 2.27 | 14 | 13.4 | 31.2 | 5.42 | 39.5 | 0.268 | 1.68
